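Five compound concentrations were applied to cells in 96-well plates for 48 hours; endpoints were derived by simple linear interpolation of the resulting dose-response curve. Abbreviation: GI50, concentration required for 50% inhibition of growth.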 Activity calls are given as the source filed them. Cut-off read from the data, not from the text of the source: active = GI50 up to about 1.1 µM and inactive = higher.
Assays:
Experiment in all cases: growth of human tumour cells (NCI), 48 h
[1] = tested on: UO-31
[2] = tested on: XF498
[3] = tested on: Malme-3M
[4] = tested on: RXF 631
[5] = tested on: LXFL 529
[6] = tested on: SK-MEL-28
[7] = tested on: HOP-18
[8] = tested on: M19-MEL
[9] = tested on: HOP-92
[10] = tested on: SF-539
[11] = tested on: A498
[12] = tested on: KM-20L2
[13] = tested on: IGROV-1
[14] = tested on: COLO 205
[15] = tested on: HOP-62
[16] = tested on: TK-10
[17] = tested on: HT-29
[18] = tested on: CAKI-1
[19] = tested on: LOX IMVI
[20] = tested on: K562
[21] = tested on: SN12C
[22] = tested on: SF-268
[23] = tested on: SK-OV-3
[24] = tested on: EKVX
[25] = tested on: RPMI-8226
[26] = tested on: CCRF-CEM
[27] = tested on: OVCAR-8
[28] = tested on: KM12
[29] = tested on: DLD-1
[30] = tested on: OVCAR-4
[31] = tested on: A549
[32] = tested on: SNB-78
[33] = tested on: ACHN
[34] = tested on: NCI-H23
[35] = tested on: DMS-273
[36] = tested on: NCI-H522
[37] = tested on: M14
[38] = tested on: SF-295
[39] = tested on: 786-0
[40] = tested on: OVCAR-3
[41] = tested on: NCI-H226
[42] = tested on: RXF 393
[43] = tested on: U-251
[44] = tested on: HCT-15
[45] = tested on: SR
[46] = tested on: UACC-257
[47] = tested on: OVCAR-5
[48] = tested on: SK-MEL-5
[49] = tested on: SK-MEL-2
[50] = tested on: NCI-H460
[51] = tested on: SW-620
[52] = tested on: UACC-62
[53] = tested on: SNB-75
[54] = tested on: HCT-116
[55] = tested on: HL-60
[56] = tested on: DMS-114
[57] = tested on: MOLT-4
[58] = tested on: SNB-19
[59] = tested on: HCC 2998

With `O=C(Nc1nc2c(ncn2C2OC(CO)C(O)C2O)c(=O)[nH]1)c1ccccc1` (configuration not stated) the GI50 [1] was > 100 µM (inactive), the GI50 [2] was > 100 µM (inactive) and the GI50 [3] was > 100 µM (inactive). The GI50 [4] was > 100 µM (inactive), the GI50 [5] was > 100 µM (inactive) and the GI50 [6] was > 100 µM (inactive). The GI50 [7] was > 100 µM (inactive), the GI50 [8] was > 100 µM (inactive) and the GI50 [9] was > 100 µM (inactive). The GI50 [10] was > 100 µM (inactive), the GI50 [11] was > 100 µM (inactive) and the GI50 [12] was > 100 µM (inactive). The GI50 [13] was > 100 µM (inactive), the GI50 [14] was > 100 µM (inactive) and the GI50 [15] was > 100 µM (inactive). The GI50 [16] was > 100 µM (inactive), the GI50 [17] was > 100 µM (inactive) and the GI50 [18] was > 100 µM (inactive). For the same compound, the GI50 [19] was > 100 µM (inactive), the GI50 [20] was > 100 µM (inactive) and the GI50 [21] was > 100 µM (inactive). The GI50 [22] was > 100 µM (inactive), the GI50 [23] was > 100 µM (inactive) and the GI50 [24] was > 100 µM (inactive). The GI50 [25] was > 100 µM (inactive), the GI50 [26] was 2.5 µM (inactive) and the GI50 [27] was > 100 µM (inactive). The GI50 [28] was > 100 µM (inactive), the GI50 [29] was > 100 µM (inactive) and the GI50 [30] was > 100 µM (inactive). For the same compound, the GI50 [31] was > 100 µM (inactive), the GI50 [32] was > 100 µM (inactive) and the GI50 [33] was > 100 µM (inactive). For the same compound, the GI50 [34] was > 100 µM (inactive), the GI50 [35] was > 100 µM (inactive) and the GI50 [36] was 93.3 µM (inactive). The GI50 [37] was > 100 µM (inactive), the GI50 [38] was > 100 µM (inactive) and the GI50 [39] was > 100 µM (inactive). The GI50 [40] was > 100 µM (inactive), the GI50 [41] was > 100 µM (inactive) and the GI50 [42] was 63 µM (inactive). The GI50 [43] was > 100 µM (inactive), the GI50 [44] was > 100 µM and the GI50 [45] was > 100 µM (inactive). The GI50 [46] was > 100 µM (inactive), the GI50 [47] was > 100 µM (inactive) and the GI50 [48] was > 100 µM (inactive). The GI50 [49] was > 100 µM (inactive), the GI50 [50] was > 100 µM (inactive) and the GI50 [51] was > 100 µM (inactive). For the same compound, the GI50 [52] was > 100 µM (inactive), the GI50 [53] was > 100 µM (inactive) and the GI50 [54] was > 100 µM (inactive). The GI50 [55] was > 100 µM (inactive).
`COc1ccc(C2CCc3cc4c(cc3/C2=N/OC(C)=O)OCO4)cc1OC` (configuration not stated) was tested, and the GI50 [1] was 17.2 µM (inactive), the GI50 [2] was 18.4 µM (inactive) and the GI50 [3] was 20.1 µM (inactive). The GI50 [4] was 25.5 µM (inactive), the GI50 [5] was 26.4 µM (inactive) and the GI50 [6] was 18.4 µM (inactive). The GI50 [7] was 26.7 µM (inactive), the GI50 [8] was 22.1 µM (inactive) and the GI50 [9] was 23.1 µM (inactive). For the same compound, the GI50 [10] was 17.9 µM (inactive), the GI50 [12] was 22.3 µM (inactive) and the GI50 [13] was 24.3 µM (inactive). For the same compound, the GI50 [14] was 22.5 µM (inactive), the GI50 [15] was 40.3 µM (inactive) and the GI50 [16] was 39 µM (inactive). The GI50 [17] was 36.2 µM (inactive), the GI50 [19] was 15.9 µM (inactive) and the GI50 [20] was 20.2 µM (inactive). For the same compound, the GI50 [21] was 26.9 µM (inactive), the GI50 [22] was 12.9 µM (inactive) and the GI50 [23] was 28.8 µM (inactive). The GI50 [24] was 29.2 µM (inactive), the GI50 [25] was 12.6 µM (inactive) and the GI50 [26] was 25.6 µM (inactive). For the same compound, the GI50 [27] was 34.4 µM (inactive), the GI50 [28] was 20.8 µM (inactive) and the GI50 [56] was 10.7 µM (inactive). For the same compound, the GI50 [30] was 27.1 µM (inactive), the GI50 [31] was 18.3 µM (inactive) and the GI50 [32] was 41.4 µM (inactive). For the same compound, the GI50 [34] was 10.4 µM (inactive), the GI50 [35] was 24.8 µM (inactive) and the GI50 [36] was 12 µM (inactive). The GI50 [37] was 20.6 µM (inactive), the GI50 [38] was 23 µM (inactive) and the GI50 [39] was 32.5 µM (inactive). The GI50 [40] was 15.3 µM (inactive), the GI50 [57] was 15.8 µM (inactive) and the GI50 [41] was 12.6 µM (inactive). For the same compound, the GI50 [42] was 14 µM (inactive), the GI50 [43] was 23.8 µM (inactive) and the GI50 [44] was 30.3 µM. The GI50 [46] was 18.4 µM (inactive), the GI50 [47] was 32.9 µM (inactive) and the GI50 [48] was 8.65 µM (inactive). For the same compound, the GI50 [49] was 27.8 µM (inactive), the GI50 [51] was 27.4 µM (inactive) and the GI50 [52] was 18.2 µM (inactive). For the same compound, the GI50 [53] was 18.3 µM (inactive), the GI50 [54] was 14.2 µM (inactive) and the GI50 [58] was 39.3 µM (inactive).
`N#CC(C#N)=Cc1ccc(CP(=O)(O)O)cc1` was tested, and the GI50 [1] was > 100 µM (inactive), the GI50 [2] was > 100 µM (inactive) and the GI50 [3] was > 100 µM (inactive). For the same compound, the GI50 [4] was > 100 µM (inactive), the GI50 [5] was > 100 µM (inactive) and the GI50 [6] was > 100 µM (inactive). The GI50 [7] was > 100 µM (inactive), the GI50 [8] was > 100 µM (inactive) and the GI50 [9] was > 100 µM (inactive). For the same compound, the GI50 [10] was > 100 µM (inactive), the GI50 [11] was > 100 µM (inactive) and the GI50 [12] was > 100 µM (inactive). The GI50 [13] was > 100 µM (inactive), the GI50 [14] was > 100 µM (inactive) and the GI50 [15] was > 100 µM (inactive). For the same compound, the GI50 [16] was > 100 µM (inactive), the GI50 [17] was > 100 µM (inactive) and the GI50 [18] was > 100 µM (inactive). For the same compound, the GI50 [19] was > 100 µM (inactive), the GI50 [20] was > 100 µM (inactive) and the GI50 [21] was > 100 µM (inactive). The GI50 [22] was > 100 µM (inactive), the GI50 [23] was > 100 µM (inactive) and the GI50 [24] was > 100 µM (inactive). The GI50 [25] was > 100 µM (inactive), the GI50 [26] was 44.2 µM (inactive) and the GI50 [27] was > 100 µM (inactive). For the same compound, the GI50 [28] was > 100 µM (inactive), the GI50 [29] was > 100 µM (inactive) and the GI50 [56] was > 100 µM (inactive). The GI50 [30] was > 100 µM (inactive), the GI50 [59] was > 100 µM (inactive) and the GI50 [31] was > 100 µM (inactive). For the same compound, the GI50 [32] was > 100 µM (inactive), the GI50 [33] was > 100 µM (inactive) and the GI50 [34] was > 100 µM (inactive). For the same compound, the GI50 [35] was > 100 µM (inactive), the GI50 [36] was 59.6 µM (inactive) and the GI50 [37] was > 100 µM (inactive). For the same compound, the GI50 [38] was > 100 µM (inactive), the GI50 [39] was > 100 µM (inactive) and the GI50 [40] was > 100 µM (inactive). For the same compound, the GI50 [57] was > 100 µM (inactive), the GI50 [41] was > 100 µM (inactive) and the GI50 [43] was > 100 µM (inactive). For the same compound, the GI50 [44] was > 100 µM, the GI50 [46] was > 100 µM (inactive) and the GI50 [47] was > 100 µM (inactive). The GI50 [48] was > 100 µM (inactive), the GI50 [49] was > 100 µM (inactive) and the GI50 [50] was > 100 µM (inactive). The GI50 [51] was > 100 µM (inactive), the GI50 [52] was > 100 µM (inactive) and the GI50 [54] was > 100 µM (inactive). The GI50 [58] was > 100 µM (inactive) and the GI50 [55] was 70.6 µM (inactive).
